The values below come from paper PMC3119665, “A New Drug Design Targeting the Adenosinergic System for Huntington's Disease” (PLoS ONE, 2011).

As a reminder, the Ki is a measure of affinity in units of concentration, obtained from inhibition or displacement.

The test system of one experiment is R6/2 mice. The note with it: cited from earlier work.
The target in experiment [1] is Adenosine transporter (ENT1). The note with it: ENT1 inhibitor reference value; no reference given; cited from earlier work.
Another experiment has as its target T1, A2AR (Rattus norvegicus, UniProt P30543).
T1 construct: Treatment of PC12 cells with T1-11 dose-dependently elevated the cellular cAMP levels; endogenous in cells; host or cells: PC12
As to the kind of experiment: cAMP assay in PC12 cells. The class given is cell-based. As to conditions: PC12 cells, T1-11 10 µM, SCH 1 µM, 20 min. As for the experimental part: PC12 cells were plated at the density of 5×10^5 cells/well (on 12-well plates) and incubated with the indicated reagent(s) for the desired period of time. Cells were washed twice with ice-cold Locke's solution (150 mM NaCl, 5.6 mM KCl, 5 mM glucose, 1 mM MgCl2, and 10 mM HEPES, adjusted to pH 7.4). Cellular cAMP was extracted by adding 0.3 ml of 0.1 M HCl to each well and incubating this for 10 min on ice.

The subject of another experiment is PC12 cells. Description: MTT metabolism assay, serum-deprived PC12 cells. It counts as cell-based, rat. The note with it: 24 h. As for the experimental part: Survival was assessed by the 3-(4,5-dimethylthiazol-2-yl)-2,5-diphenyltetrazolium bromide (MTT) metabolism assay as described elsewhere, [65]. In brief, cells grown on 150-mm plates were washed three times with PBS and resuspended in DMEM. Suspended cells (1×10^4 cells) were plated on 96-well plates and treated with or without the indicated reagent. After incubation for 24 h, MTT (0.5 mg/ml) was added to the medium and incubated for 3 h. After discarding the medium, DMSO (100 µl) was then applied to the well to dissolve the formazan crystals derived from the mitochondrial cleavage of the tetrazolium ring by live cells. The absorbance at 570/630 nm in each well was measured on a micro-enzyme-linked immunosorbent assay reader.

T1 sequence (P30543 whole entry): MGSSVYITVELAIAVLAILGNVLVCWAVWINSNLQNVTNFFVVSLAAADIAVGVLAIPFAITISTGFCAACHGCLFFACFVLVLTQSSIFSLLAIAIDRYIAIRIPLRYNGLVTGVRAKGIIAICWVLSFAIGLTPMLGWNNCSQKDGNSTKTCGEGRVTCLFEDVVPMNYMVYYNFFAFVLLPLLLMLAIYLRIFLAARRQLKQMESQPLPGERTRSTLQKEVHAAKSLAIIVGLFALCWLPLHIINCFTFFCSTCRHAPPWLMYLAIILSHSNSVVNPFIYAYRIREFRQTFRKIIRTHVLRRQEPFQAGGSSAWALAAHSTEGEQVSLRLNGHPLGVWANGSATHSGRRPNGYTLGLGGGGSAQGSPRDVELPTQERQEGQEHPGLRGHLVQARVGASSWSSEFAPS

Consider `CCNC(=O)[C@H]1O[C@@H](n2cnc3c(N)nc(NCCc4ccc(CCC(=O)O)cc4)nc32)[C@H](O)[C@@H]1O` [CGS], for which the “Effects on major HD symptoms (brain atrophy, striatal aggregates, deteriorated motor coordination)” value with R6/2 mice is “provides beneficial effects on several major HD symptoms”.

For the compound `O=[N+]([O-])c1ccc(CSc2ncnc3c2ncn3[C@@H]2O[C@H](CO)[C@@H](O)[C@H]2O)cc1` [NBTI, 6-[(4-nitrobenzyl)thio]-9-β-D-ribofuranosylpurine], the Ki in experiment [1] is 0.85 nM. Take `Nc1nc2c(cnn2CCc2ccccc2)c2nc(-c3ccco3)nn12` [SCH58216]: the “Effect on T1-11-induced elevation in the cAMP level” value on A2AR is recorded as “effectively blocked the T1-11-induced elevation in the cAMP level”. Further, the Motor coordination entry in the experiment with R6/2 mice (treatment for 1 week) is given as “worsened motor coordination”. The “Effect of A2AR antagonist on T1-11's prevention of serum deprivation-induced death” value with PC12 cells is listed as “blocked the effect of T1-11”. As to `Nc1nc(NCCc2ccc(O)cc2)nc2nc(-c3ccco3)nn12` [ZM241385], the “Effect of A2AR antagonist on T1-11's prevention of serum deprivation-induced death” value in the experiment on PC12 cells is given as “blocked the effect of T1-11”.
